Calls of active or inactive are those of the source. The rule behind the calls is not given here.
Legend:
[1] = Half life in CD-1 mouse at 3 mg/kg, iv; type: ADME, organism-based; conditions: in vivo
[2] = target: T1, Peroxisome proliferator-activated receptor alpha (Homo sapiens, UniProt Q07869); experiment: Modulator activity at GAL4-fused human PPARalpha LBD (unknown origin) transfected in African green monkey CV1 cells assessed as receptor transactivation by luciferase reporter gene assay; type: cell-based, CV-1
T1 sequence (Q07869 whole entry): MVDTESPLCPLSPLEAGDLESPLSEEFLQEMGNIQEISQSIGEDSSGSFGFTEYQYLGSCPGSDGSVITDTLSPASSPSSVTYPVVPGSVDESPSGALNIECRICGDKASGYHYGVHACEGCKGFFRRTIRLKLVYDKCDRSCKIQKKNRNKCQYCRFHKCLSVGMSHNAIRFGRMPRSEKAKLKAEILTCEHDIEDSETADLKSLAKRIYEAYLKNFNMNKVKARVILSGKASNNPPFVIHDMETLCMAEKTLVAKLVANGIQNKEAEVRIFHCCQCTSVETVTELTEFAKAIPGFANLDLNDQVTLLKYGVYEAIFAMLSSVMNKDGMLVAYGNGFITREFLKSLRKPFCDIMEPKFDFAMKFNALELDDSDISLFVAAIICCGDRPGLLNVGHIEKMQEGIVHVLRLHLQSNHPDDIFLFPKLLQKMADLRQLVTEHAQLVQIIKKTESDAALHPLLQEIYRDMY

[3] = Selectivity index, ratio of EC50 for transactivation of GAL4-fused PPARalpha LBD (unknown origin) transfected in CV1 cells to EC50 for transactivation of GAL4-fused human PPARdelta LBD (128 to residue at C-terminus) transfected in African green monkey CV1 cells by luciferase reporter gene assay
[4] = target: T2, Peroxisome proliferator-activated receptor delta (Homo sapiens, UniProt Q03181)
T2 sequence (Q03181 whole entry): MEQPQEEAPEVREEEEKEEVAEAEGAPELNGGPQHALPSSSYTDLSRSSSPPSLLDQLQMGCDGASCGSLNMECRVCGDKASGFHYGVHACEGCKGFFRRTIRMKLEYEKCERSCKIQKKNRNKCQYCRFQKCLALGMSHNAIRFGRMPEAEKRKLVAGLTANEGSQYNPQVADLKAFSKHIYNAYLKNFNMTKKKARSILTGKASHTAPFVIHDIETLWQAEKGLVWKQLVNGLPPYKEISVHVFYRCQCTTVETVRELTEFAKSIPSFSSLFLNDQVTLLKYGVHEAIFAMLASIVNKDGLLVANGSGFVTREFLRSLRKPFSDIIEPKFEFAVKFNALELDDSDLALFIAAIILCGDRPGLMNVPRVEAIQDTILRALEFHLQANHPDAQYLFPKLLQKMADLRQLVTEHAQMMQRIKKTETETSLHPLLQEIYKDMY
Description: Modulator activity at GAL4-fused human PPARdelta LBD (128 to residue at C-terminus) transfected in African green monkey CV1 cells assessed as receptor transactivation by luciferase reporter gene assay

[5] = AUC in CD-1 mouse at 3 mg/kg, iv; type: ADME, organism-based; parameters: dose 3 mg/kg; conditions: in vivo
[6] = Clearance in CD-1 mouse at 3 mg/kg, iv; type: ADME, organism-based; conditions: in vivo
[7] = target: T3, Peroxisome proliferator-activated receptor gamma (Homo sapiens, UniProt P37231); experiment: Modulator activity at GAL4-fused human PPARgamma LBD (unknown origin) transfected in African green monkey CV1 cells assessed as receptor transactivation by luciferase reporter gene assay; type: cell-based, CV-1
T3 sequence (P37231 whole entry): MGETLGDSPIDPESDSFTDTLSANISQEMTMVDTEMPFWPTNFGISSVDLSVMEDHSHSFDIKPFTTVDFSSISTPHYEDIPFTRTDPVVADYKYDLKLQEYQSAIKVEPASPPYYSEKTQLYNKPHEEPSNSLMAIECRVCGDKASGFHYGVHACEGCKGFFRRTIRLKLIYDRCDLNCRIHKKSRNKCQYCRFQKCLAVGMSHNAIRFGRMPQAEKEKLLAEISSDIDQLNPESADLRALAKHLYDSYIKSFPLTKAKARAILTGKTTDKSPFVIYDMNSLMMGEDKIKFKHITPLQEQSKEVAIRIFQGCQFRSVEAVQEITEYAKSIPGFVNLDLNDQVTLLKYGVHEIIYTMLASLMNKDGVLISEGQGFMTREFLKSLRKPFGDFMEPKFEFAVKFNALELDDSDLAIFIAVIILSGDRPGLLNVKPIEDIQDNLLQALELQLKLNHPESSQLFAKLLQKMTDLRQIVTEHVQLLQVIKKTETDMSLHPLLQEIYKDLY

[8] = AUC in cynomolgus monkey at 3 mg/kg, iv; type: ADME, organism-based, Macaca fascicularis; parameters: dose 3 mg/kg; conditions: in vivo
[9] = Half life in Wistar rat at 3 mg/kg, po; type: ADME, organism-based; conditions: in vivo
[10] = Cmax in CD-1 mouse at 3 mg/kg, po; type: ADME, organism-based; parameters: route oral, dose 3 mg/kg; conditions: in vivo
[11] = AUC in CD-1 mouse at 3 mg/kg, po; type: ADME, organism-based; parameters: dose 3 mg/kg; conditions: in vivo
[12] = target: T4, Peroxisome proliferator-activated receptor delta (Mus musculus, UniProt P35396); experiment: Modulator activity at mouse PPARdelta
T4 sequence (P35396 whole entry): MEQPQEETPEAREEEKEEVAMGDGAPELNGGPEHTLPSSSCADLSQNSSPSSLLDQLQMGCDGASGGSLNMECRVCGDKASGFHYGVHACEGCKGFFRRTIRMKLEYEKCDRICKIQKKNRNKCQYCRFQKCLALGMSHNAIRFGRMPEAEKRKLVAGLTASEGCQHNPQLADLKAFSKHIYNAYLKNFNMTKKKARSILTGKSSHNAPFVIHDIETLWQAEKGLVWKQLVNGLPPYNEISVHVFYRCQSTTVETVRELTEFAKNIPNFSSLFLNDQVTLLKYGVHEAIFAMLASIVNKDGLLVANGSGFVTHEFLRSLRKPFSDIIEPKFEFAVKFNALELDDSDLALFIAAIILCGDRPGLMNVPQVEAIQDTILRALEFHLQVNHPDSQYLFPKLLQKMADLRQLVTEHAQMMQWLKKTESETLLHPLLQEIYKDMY

Mus musculus = experiment: In vivo modulator activity at PPARdelta in C57BL/6JRccHsd mouse skeletal muscle assessed as increase in Pdk4 gene expression at 30 to 100 mg/kg, po administered for 9 days and measured at 2 hrs after final administration by qPCR analysis; type: functional, organism-based; conditions: dose 30-100 mg/kg, time 9.0 day
[13] = Cmax in cynomolgus monkey at 10 mg/kg, po; type: ADME, organism-based, Macaca fascicularis; parameters: route oral, dose 10 mg/kg; conditions: in vivo
[14] = Oral bioavailability in Wistar rat at 3 mg/kg; type: ADME, organism-based; conditions: in vivo
[15] = AUC in Wistar rat at 1 mg/kg, iv; type: ADME, organism-based; parameters: dose 1 mg/kg; conditions: in vivo
[16] = Half life in cynomolgus monkey at 3 mg/kg, iv; type: ADME, organism-based, Macaca fascicularis; conditions: in vivo
[17] = Oral bioavailability in cynomolgus monkey at 10 mg/kg; type: ADME, organism-based, Macaca fascicularis; conditions: in vivo
[18] = Mutagenicity in Salmonella typhimurium by mini Ames test; type: toxicity; conditions: salmonella enterica subsp. enterica serovar typhimurium
[19] = AUC in cynomolgus monkey at 10 mg/kg, po; type: ADME, organism-based, Macaca fascicularis; parameters: dose 10 mg/kg; conditions: in vivo
[20] = target: T5, Peroxisome proliferator-activated receptor delta (Mus musculus) (UniProt P35396); experiment: Modulator activity at PPARdelta in […] primary myoblasts derived from DMD patient assessed as upregulation of ANGPTL4 gene expression at 0.4 nM measured after 48 hrs; type: tissue-based; conditions: Primary myotube, filed as modulator
T5 sequence (whole entry): T4 sequence (P35396 whole entry)

[21] = Cmax in Wistar rat at 3 mg/kg, po; type: ADME, organism-based; parameters: route oral, dose 3 mg/kg; conditions: in vivo
[22] = Half life in CD-1 mouse at 3 mg/kg, po; type: ADME, organism-based; conditions: in vivo
[23] = Protein binding in rat plasma; type: ADME, cell-free; conditions: read-out: PPB (converted)
[24] = target: T5, Peroxisome proliferator-activated receptor delta (Mus musculus); experiment: Modulator activity at PPARdelta in […] primary myoblasts derived from DMD patient assessed as upregulation of PDK4 gene expression at 0.4 nM measured after 48 hrs; type: tissue-based; conditions: Primary myotube, filed as modulator
[25] = Oral bioavailability in CD-1 mouse at 3 mg/kg; type: ADME, organism-based; conditions: in vivo
[26] = AUC in CD-1 mouse at 1 mg/kg, iv; type: ADME, organism-based; parameters: dose 1 mg/kg; conditions: in vivo
[27] = Half life in CD-1 mouse at 1 mg/kg, iv; type: ADME, organism-based; conditions: in vivo
[28] = Protein binding in mouse plasma; type: ADME, cell-free; conditions: read-out: PPB (converted)
[29] = Protein binding in human plasma; type: ADME, cell-free; conditions: read-out: PPB
[30] = target: T5, Peroxisome proliferator-activated receptor delta (Mus musculus); experiment: Modulator activity at PPARdelta in […] primary myoblasts derived from DMD patient assessed as upregulation of ANGPTL4 gene expression at 0.04 nM measured after 48 hrs; type: tissue-based; conditions: Primary myotube
[31] = Clearance in Wistar rat at 1 mg/kg, iv; type: ADME, organism-based; conditions: in vivo
[32] = AUC in Wistar rat at 3 mg/kg, po; type: ADME, organism-based; parameters: dose 3 mg/kg; conditions: in vivo
[33] = Volume of distribution at steady state in Wistar rat at 1 mg/kg, iv; type: ADME, organism-based; conditions: in vivo, read-out: Vdss
[34] = Half life in Wistar rat at 1 mg/kg, iv; type: ADME, organism-based; conditions: in vivo
[35] = target: T5, Peroxisome proliferator-activated receptor delta (Mus musculus); experiment: Modulator activity at PPARdelta in […] primary myoblasts derived from DMD patient assessed as upregulation of PDK4 gene expression at 0.04 nM measured after 48 hrs; type: tissue-based; conditions: Primary myotube
CYP2C9 = CYP2C9 (Homo sapiens, UniProt P11712); experiment: Inhibition of CYP2C9 (unknown origin) at 10 uM relative to control; type: ADME
Chain of CYP2C9 (P11712 whole entry): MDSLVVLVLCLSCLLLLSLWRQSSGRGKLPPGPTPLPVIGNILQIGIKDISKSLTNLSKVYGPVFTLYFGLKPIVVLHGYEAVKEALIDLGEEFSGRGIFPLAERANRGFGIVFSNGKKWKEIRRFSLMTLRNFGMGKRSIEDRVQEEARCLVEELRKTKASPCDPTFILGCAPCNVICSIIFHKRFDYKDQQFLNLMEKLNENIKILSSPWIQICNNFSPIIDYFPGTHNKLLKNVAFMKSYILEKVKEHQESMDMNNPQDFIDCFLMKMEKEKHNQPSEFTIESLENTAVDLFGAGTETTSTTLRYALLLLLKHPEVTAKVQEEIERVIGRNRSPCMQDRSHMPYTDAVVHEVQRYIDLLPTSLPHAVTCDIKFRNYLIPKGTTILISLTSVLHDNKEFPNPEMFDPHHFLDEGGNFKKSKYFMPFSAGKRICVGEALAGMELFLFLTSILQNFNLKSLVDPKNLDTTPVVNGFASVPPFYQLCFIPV

[36] = Volume of distribution at steady state in cynomolgus monkey at 3 mg/kg, iv; type: ADME, organism-based, Macaca fascicularis; conditions: in vivo
[37] = Volume of distribution at steady state in CD-1 mouse at 1 mg/kg, iv; type: ADME, organism-based; conditions: in vivo, read-out: Vdss
[38] = Half life in cynomolgus monkey at 10 mg/kg, po; type: ADME, organism-based, Macaca fascicularis; conditions: in vivo
[39] = Permeability across basolateral to apical side in human Caco2 cells; type: ADME, cell-based; conditions: Caco-2, read-out: permeability
[40] = Permeability across apical to basolateral side in human Caco2 cells; type: ADME, cell-based; conditions: Caco-2, read-out: permeability
[41] = Modulator activity at rat PPARdelta
[42] = Inhibition of CYP450 (unknown origin); type: ADME, Homo sapiens

## C/C(=C\COc1ccccc1Cc1c(C)nnn1-c1ccc(-c2ccco2)cc1)CCC(=O)O
[1]
  half-life: 0.2 h
[2]
  EC50: 16800 nM
[3]
  Ratio EC50: >1000
[4]
  EC50: 8.4 nM
[5]
  AUC: 220 ng·h/mL
[6]
  clearance: 225 mL/min/kg
[7]
  EC50: > 10000 nM

## Cc1cnc(-c2ccc(OC(F)(F)F)cc2)n1Cc1ccccc1OCCC[C@@H](C)CC(=O)O
[8]
  AUC: 8400 ng·h/mL
[9]
  half-life: 4.6 h
[10]
  Cmax: 510 ng/mL
[11]
  AUC: 630 ng·h/mL
[12]
  EC50: 7.9 nM
Mus musculus
  Activity: Active
[13]
  Cmax: 1660 ng/mL
[14]
  bioavailability: 90%
[15]
  AUC: 1590 ng·h/mL
[16]
  t1/2: 6.1 h
[17]
  bioavailability: 13%
[18]
  Activity: Non-Toxic
[19]
  AUC: 3840 ng·h/mL
[20]
  Activity: 98%
[21]
  Cmax: 1090 ng/mL
[1]
  half-life: 3.3 h
[2]
  EC50: 6900 nM
[22]
  half-life: 3.4 h
[23]
  fraction unbound: 0.004
[24]
  Activity: 98%
[25]
  bioavailability: 42%
[26]
  AUC: 503 ng·h/mL
[27]
  half-life: 2.7 h
[28]
  fraction unbound: 0.005
[29]
  fraction unbound: 0.001
[30]
  Activity: 36%
[31]
  clearance: 10 mL/min/kg
[32]
  AUC: 4920 ng·h/mL
[4]
  EC50: 0.4 nM
[33]
  Vd: 1.8 L/kg
[34]
  half-life: 6.1 h
[35]
  Activity: 32%
CYP2C9
  inhibition at 10 µM: 56%
[36]
  Vdss: 3.2 L/kg
[37]
  Vd: 5.8 L/kg
[5]
  AUC: 1250 ng·h/mL
[38]
  half-life: 7.3 h
[39]
  Papp B→A: 41 ×10⁻⁶ cm/s
[40]
  Papp A→B: 36 ×10⁻⁶ cm/s
[6]
  clearance: 25 mL/min/kg
[41]
  EC50: 10 nM
[7]
  EC50: > 10000 nM
[42]
  IC50: ≥ 10000 nM

## Cc1cnc(-c2ccc(F)cc2)n1Cc1ccccc1OCCC[C@@H](C)CC(=O)O
[2]
  EC50: > 100000 nM
[7]
  EC50: > 10000 nM

## C/C(=C\COc1ccccc1Cn1c(C)cnc1-c1ccc(OC(F)(F)F)cc1)CCC(=O)O
[1]
  half-life: 3.1 h
[2]
  EC50: 2290 nM
[26]
  AUC: 240 ng·h/mL
[4]
  EC50: 0.3 nM
[6]
  clearance: 70 mL/min/kg
[7]
  EC50: > 10000 nM
